Test results as given in ChEMBL document CHEMBL5257070, “The Asymmetric Total Synthesis and Configuration Confirmation of Aplysiaenal and Nhatrangin A, Truncated Derivatives of Aplysiatoxin and Oscillatoxin” (J Nat Prod, 2023).
pIC50: −log10 of the molar value.

Key:
[1] = tested on: L1210; assay: Cytotoxicity against mouse L1210 cells incubated for 72 hrs by WST-8 method; type: functional, cell-based; conditions: L1210, 72 h
[2] = tested on: HCT-116; assay: Cytotoxicity against human HCT-116 cells incubated for 72 hrs by MTT assay; type: functional, cell-based; conditions: HCT-116, 72 h

Row | Structure (SMILES) | pIC50 [1] | pIC50 [2]
1 | CO[C@@H](CC[C@H](C)[C@H]1O[C@@]2(C=C[C@@H]1C)[C@H](C(=O)O[C@H]1COC(=O)C1)C(=O)[C@H](C)CC2(C)C)c1cccc(O)c1 | 4.32 | –
2 | CO[C@@H](CC[C@H](C)[C@@H](OC(=O)C[C@@H](O)[C@@H](C)O)[C@@H](C)C(=O)O)c1cccc(O)c1 | < 4.00 | < 4.00
3 | CO[C@@H](CC[C@H](C)/C=C(\C)C=O)c1cccc(O)c1 | 4.03 | < 4.00
